Test results reported in ChEMBL document CHEMBL3112516, “Design, synthesis and biological evaluation of novel peptide MC62 analogues as potential antihyperglycemic agents” (2014).
Activity calls are given as the source filed them. The rule behind the calls is not given here.

How the values were obtained:
[1] = test system: Mus musculus; test: Antihyperglycemic activity in overnight fasted STZ-induced diabetic mouse model assessed as blood glucose level at 1 umol/kg, ip qd administered for 20 days measured after 20 days relative to control; type: functional
[2] = test system: MIN6; test: Inhibition of palmitate-induced apoptosis in mouse MIN6 cells assessed as reduction of apoptotic cells at 10 nM preincubated for 24 hrs followed by palmitate challenge measured after 1 hr by Hoechst 33342 staining-based microscopic analysis; type: functional, cell-based
[3] = test system: MIN6; test: Inhibition of H202-induced apoptosis in mouse MIN6 cells assessed as change in nuclear fragmentation at 10 nM preincubated for 24 hrs followed by H202 challenge measured after 1 hr by Hoechst 33342 staining-based microscopic analysis; type: functional, cell-based
[4] = test system: Mus musculus; test: Antioxidant activity in STZ-induced mouse model assessed as GSH level at 1 umol/kg, ip administered for 20 days measured on day 21 (reference value: 8.13 +/- 0.13 mg/ml); type: functional
[5] = test system: Mus musculus; test: Antioxidant activity in STZ-induced mouse model assessed as GSH-PX level at 1 umol/kg, ip administered for 20 days measured on day 21 (reference value: 1449.23 +/- 49.42 U/ml); type: functional
[6] = test system: Mus musculus; test: Antioxidant activity in STZ-induced mouse model assessed as MDA level at 1 umol/kg, ip administered for 20 days measured on day 21 (reference value: 12.49 +/- 1.35 nmol/ml); type: functional
[7] = test system: Mus musculus; test: Antioxidant activity in STZ-induced mouse model assessed as SOD level at 1 umol/kg, ip administered for 20 days measured on day 21 (reference value: 41.58 +/- 2.89 U/ml); type: functional
[8] = test system: Mus musculus; test: Antihyperglycemic activity in STZ-induced mouse model assessed as increase in islet number at 1 umol/kg, ip by hematoxylin and eosin staining technique; type: functional, organism-based
[9] = test system: Mus musculus; test: Antihyperglycemic activity in overnight fasted STZ-induced mouse model assessed as decrease in glycated hemoglobin level at 1 umol/kg, ip administered for 20 days measured on day 21; type: functional, organism-based
[10] = test system: Mus musculus; test: Antihyperglycemic activity in overnight fasted STZ-induced mouse model assessed as reduction of fasting blood glucose level at 1 umol/kg, ip administered for 20 days measured every 5 days up to 20 days; type: functional, organism-based
[11] = test system: Mus musculus; test: Antihyperglycemic activity in STZ-induced mouse model assessed as decrease in body weight at 1 umol/kg, ip administered for 20 days measured every 5 days up to 20 days; type: functional, organism-based
[12] = test system: Mus musculus; test: Antihyperglycemic activity in STZ-induced mouse model assessed as decrease in water intake at 1 umol/kg, ip administered for 20 days measured every 5 days up to 20 days; type: functional, organism-based
[13] = test system: Mus musculus; test: Antihyperglycemic activity in STZ-induced mouse model assessed as decrease in food intake at 1 umol/kg, ip administered for 20 days measured every 5 days up to 20 days; type: functional, organism-based
[14] = test system: Mus musculus; test: Antihyperglycemic activity in mouse assessed as decrease in blood glucose level at 1 umol/kg, ip pretreated with compound followed by glucose challenge measured after 30 to 60 mins by oral glucose tolerance test; type: functional, organism-based

| Substance | Activity [1] [mmol/L] | further results |
| --- | --- | --- |
| H-GTNMKHMAGAA-OH | 15.26 |  |
| H-KGNMKHMAGAA-OH | 15.28 |  |
| H-KMNMKGMAGAA-OH | 13.44 |  |
| H-KTGMKHMAGAA-OH | 14.36 |  |
| H-KTMMKGMAGAA-OH | 11.8 | Activity [2]: Active; Activity [3]: Active; Activity [4]: 12.14 mg/mL; Activity [5]: 1707.69 U/ml; Activity [6]: 7.61 nmol/mL; Activity [7]: 46.96 U/ml; Activity [8]: Active; Activity [9]: Active; Activity [10]: Active; Activity [11]: Active; Activity [12]: Active; Activity [13]: Active; Activity [14]: Active |
| H-KTNGKHMAGAA-OH | 18.34 |  |
| H-KTNMGHMAGAA-OH | 18.52 |  |
| H-KTNMKGMAGAA-OH | 13.29 |  |
| H-KTNMKGMAGAM-OH | 20.18 |  |
| H-KTNMKGMAGMA-OH | 17.38 |  |
| H-KTNMKGMAMAA-OH | 14.03 |  |
| H-KTNMKHGAGAA-OH | 21.82 |  |
| H-KTNMKHMAGAA-OH | 16.16 |  |
| H-KTNMKHMGGAA-OH | 18.02 |  |
| H-MTNMKGMAGAA-OH | 20.83 |  |
